Assay results reported in patent US8372865B2, “Dihydropyridone amides as P2X7 modulators” (Roche Palo Alto LLC, priority 2008, dated 2013).

Molecular target: T1, P2X7 receptor (UniProt Q99572)
T1 sequence (Q99572 1-595): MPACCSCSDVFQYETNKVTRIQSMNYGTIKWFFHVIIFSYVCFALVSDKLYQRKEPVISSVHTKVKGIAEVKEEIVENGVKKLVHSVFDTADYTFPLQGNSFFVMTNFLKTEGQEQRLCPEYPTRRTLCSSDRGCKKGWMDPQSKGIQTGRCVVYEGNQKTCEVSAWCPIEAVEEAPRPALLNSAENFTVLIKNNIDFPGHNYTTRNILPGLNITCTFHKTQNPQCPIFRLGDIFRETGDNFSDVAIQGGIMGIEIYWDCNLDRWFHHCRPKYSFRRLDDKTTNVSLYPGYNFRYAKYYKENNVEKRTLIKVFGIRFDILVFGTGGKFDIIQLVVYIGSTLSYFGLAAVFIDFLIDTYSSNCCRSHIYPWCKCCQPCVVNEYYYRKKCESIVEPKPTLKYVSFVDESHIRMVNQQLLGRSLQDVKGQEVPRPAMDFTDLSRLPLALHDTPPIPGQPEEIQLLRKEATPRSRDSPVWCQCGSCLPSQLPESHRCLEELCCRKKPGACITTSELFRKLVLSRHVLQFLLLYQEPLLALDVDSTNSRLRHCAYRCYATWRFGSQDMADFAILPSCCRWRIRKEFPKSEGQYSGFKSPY
Assay: pKi of Table 1 (assay not stated)
Type: cell-based
Experimental: Intracellular Calcium Flux (FLIPR) Assay
Stock solutions of compounds were prepared from powders as a 10 mM DMSO stock solution. These solutions were stored at RT during the two week period of these experiments to prevent freeze-thaw of the DMSO stocks. The DMSO stocks were added to the appropriate assay buffer at a concentration of 10 μM, and then diluted serially to the final concentrations that were tested. […] The aqueous solutions of compounds as well as ATP (Sigma A7699) and BzATP (Sigma B6396) were prepared fresh for each day of experiment.
1321N1 cells stably expressing the full length human P2X7 gene (1321N1-hP2X7) and HEK293 cells stably expressing the full length rat P2X7 gene (HEK293-rP2X7) were obtained from the Roche Cell Culture Facility. 1321N1-hP2X7 cells were grown in Dulbecco's Modified Eagle's Medium (DMEM) high glucose supplemented with 10% FBS and 250 μg/mL G418. HEK293-rP2X7 cells were grown in DMEM/F-12 supplemented with 10% FBS, 1 mM CaCl2, 2 mM MgCl2, 2 mM L-Glutamine and 500 μg/ml G418. Cells were split such that they never became>70% confluent.
On the day prior to the experiment, 1321N1-hP2X7 or HEK293-rP2X7 cells were released into suspension with calcium-free PBS+Versene and washed by centrifugation with calcium-free PBS to remove the Versene. Cells were resuspended in growth medium at a density of 2.5×10^5 cells/mL and seeded into black walled, clear bottom 96 well plates (50,000 cells/well) approximately 18 hr prior to intracellular calcium flux experiments.
On the day of the experiment, plates were washed with FLIPR buffer (calcium- and magnesium-free Hank's Balanced Salt Solution (HBSS) supplemented with 10 mM Hepes, 2.5 mM probenecid and 2 mM calcium chloride) using a BIO-TEK 96 channel plate washer and incubated with […] fluo-3 dye at 37° C. for one hr. The dye was then removed by plate washing and the cells were allowed to equilibrate for 20 min at room temperature with antagonist or vehicle (FLIPR buffer). Agonist (100 μM BzATP final concentration for hP2X7; 5 μM BzATP final concentration or rP2X7) was added online with the FLIPR and fluorescence measurements made at 1 sec intervals for 60 sec followed by 3 sec intervals for a further 4 min (5 min total). A final addition of 5 μM ionomycin was made and the maximal BzATP-evoked fluorescence normalized to the maximal ionomycin-evoked fluorescence.

pKi | Compound
7.45 | Cc1ccc2c(=O)n(C)ccc2c1NC(=O)C1=CN(C)C(=O)C[C@H]1c1ccc(F)cc1 [Compound 52, (S)-4-(4-Fluoro-phenyl)-1-methyl-6-oxo-1,4,5,6-tetrahydro-pyridine-3-carboxylic acid (2,6-dimethyl-1-oxo-1,2-dihydro-isoquinolin-5-yl)-amide]
6.045 | Cc1ccc2c(C)nccc2c1NC(=O)C1=CN(C)C(=O)C[C@H]1c1ccc(F)cc1 [Compound 53, (S)-4-(4-Fluoro-phenyl)-1-methyl-6-oxo-1,4,5,6-tetrahydro-pyridine-3-carboxylic acid (1,6-dimethyl-isoquinolin-5-yl)-amide]
7.56 | Cn1ccc2c(NC(=O)C3=CNC(=O)C[C@H]3c3ccc(F)cc3)cccc2c1=O [Compound 58, (S)-4-(4-Fluoro-phenyl)-6-oxo-1,4,5,6-tetrahydro-pyridine-3-carboxylic acid (2-methyl-1-oxo-1,2-dihydro-isoquinolin-5-yl)-amide]

The next lines start with the compound.

Compound | pKi
CN1C=C(C(=O)Nc2cccc3c(=O)n(CCO)ccc23)[C@H](c2ccc(F)cc2)CC1=O [Compound 50, (S)-4-(4-Fluoro-phenyl)-1-methyl-6-oxo-1,4,5,6-tetrahydro-pyridine-3-carboxylic acid [2-(2-hydroxy-ethyl)-1-oxo-1,2-dihydro-isoquinolin-5-yl]-amide] | 7.04
Cc1ccc2c(=O)n(C)ccc2c1NC(=O)C1=CNC(=O)C[C@H]1c1ccc(F)cc1 [Compound 51, (S)-4-(4-Fluoro-phenyl)-6-oxo-1,4,5,6-tetrahydro-pyridine-3-carboxylic acid (2,6-dimethyl-1-oxo-1,2-dihydro-isoquinolin-5-yl)-amide] | 7.4375
